These results are taken from patent publication US20240262842A1, “SMALL MOLECULE INHIBITORS OF KRAS G12C MUTANT” (Merck Sharp & Dohme LLC, priority 2021, published 2024).

Where two headings read alike, the source gives them in different places.

Test [1] deals with T1, interaction between GMPPNP-bound recombinant K-Ras4B G12C mutant protein and cRAF RAS-binding domain (cRAF-RBD) (Homo sapiens, UniProt P01116, G12C).
T1 construct: His-tag (N)
Description: Inhibitory activity on interaction between KRAS G12C and cRAF (Alpha technology). The settings on record: Table 2-1. As to the method: Interaction between recombinant K-Ras4B G12C mutant protein (amino acids 1-169, SEQ ID NO:2) and cRAF RAS-binding domain (cRAF-RBD, amino acids 50-132, Jena Biosciences GmbH) was measured using Alpha technology (PerkinElmer Inc.).
Recombinant KRAS G12C protein with an N-terminal His-tag was expressed in E. coli and purified by affinity chromatography. To prepare GTP-bound form and GDP-bound form of KRAS G12C protein, 50 μM KRAS G12C protein was incubated with 1 mM GMPPNP (Guanosine-5′-[(β,γ)-imido]triphosphate, Tetralithium salt) (Jena Bioscience GmbH) and 1 mM GDP, respectively, in a loading buffer (20 mM Tris-HCl (pH 7.5), 50 mM NaCl, 1 mM DTT and 2.5 mM EDTA) for 1 hour on ice. After the incubation, MgCl2 was added to a final concentration of 10 mM, followed by incubation at room temperature for 30 minutes. The mixture was allowed to pass through a NAP-5 column to remove free nucleotides and purified, and the resultant nucleotide-bound KRAS G12C protein was used for compound evaluation.
For the measurement of the inhibitory activity of compounds on interaction between KRAS G12C and cRAF-RBD, GMPPNP-bound KRAS G12C protein was incubated with various concentrations of compound in a reaction buffer (20 mM Tris-HCl (pH 7.5), 100 mM NaCl, 1 mM MgCl2, 1 mM TCEP, 0.1% Tween 20) at 25° C. for 1 hour. After the incubation, recombinant cRAF-RBD and Alpha detection reagents were added and incubated at room temperature for 1.5 hours for binding. Interaction of KRAS G12C and cRAF-RBD was monitored by measuring Alpha signal. Inhibition % was calculated using the signal from the reaction without test compound (DMSO control) as 0% inhibition and the signal from the reaction using GDP-bound KRAS G12C in place of GMPPNP-bound KRAS G12C as 100% inhibition. IC50 values were calculated from dose titration curve using curve fitting by XLfit software (IDBS).

The next test has as its system MIA PaCa-2 cells. Description: Growth inhibition activity on KRAS-G12C mutant cell line (CellTiter-Glo 3D). The following applies: Homo sapiens, MIA PaCa-2, 72 h, MIA PaCa-2, 3-day culture with compound; Table 3-1. Type of test: cell-based, human. As for the experimental part:
MIA PaCa-2 cells (given by Sumitomo Dainippon Pharma Co., Ltd.), which are a KRAS-G12C mutant human pancreas cancer cell line, were suspended in a 10% fetal bovine serum-containing RPMI1640 medium (manufactured by Fujifilm Wako Pure Chemical Corporation). The cell suspension was seeded into each well of a 384-well U bottom microplate and cultured in an incubator containing 5% CO2 gas at 37° C. for 1 day. The compounds obtained in the “Preparation of Compounds” section were used as test compounds and were dissolved in DMSO, respectively, and each test compound was diluted with DMSO to give a concentration 500 times the final concentration. The resultant solution of the test compound in DMSO was diluted with the medium used for suspending cells and added to each well of the cell-culture plate to give a DMSO final concentration of 0.2%, followed by culture in an incubator containing 5% CO2 gas at 37° C. for another 3 days. The cell count after 3-day culture in the presence of the test compound was measured using CellTiter-Glo 3D Reagent (manufactured by Promega Corporation). All wells were added with CellTiter-Glo 3D Reagent and mixed for 10 minutes. 30 minutes after mixing, luminescence was measured by a plate reader. The growth inhibition rate was calculated from the following equation, and the concentration of the test compound at which 50% inhibition was achieved (IC50 (nM)) was determined.
[formula] • T: the emission intensity in a well into which a test compound was added. • C: the emission intensity in a well into which a test compound was not added.

The mark [2] stands for this setting: IC50, GMPPNP-bound KRAS G12C incubated with compound 25° C. 1 hour.
[3] abbreviates: GMPPNP-bound KRAS G12C incubated with compound 25° C. 1 hour, read-out: IC50.

T1 sequence (P01116 with tags, fused parts or gaps isoform P01116-2 G12C): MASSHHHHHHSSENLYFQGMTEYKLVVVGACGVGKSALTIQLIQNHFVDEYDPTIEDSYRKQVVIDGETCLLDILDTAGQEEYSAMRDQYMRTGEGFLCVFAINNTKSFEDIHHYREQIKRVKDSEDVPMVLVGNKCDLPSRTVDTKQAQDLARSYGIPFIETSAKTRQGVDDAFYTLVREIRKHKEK

A word on the IC50: it is the concentration that inhibits the measured activity by half. For the molecule `Cc1cc2c(nc(C)n2C)c2c1-c1cccc3c(C(=O)c4cc(F)c(NC(=O)/C=C/CN[C@H]5C[C@H]6CC[C@@H]5O6)c(F)c4)cn(c13)CCN2C` [Example 136], the IC50 in test [1] (setting [2]) was 26.4 nM; in the test on MIA PaCa-2 cells, 36.1 nM.
As to `Cc1nc2c3c(c(C(F)(F)F)cc2n1C)-c1cccn2c(C(=O)c4cc(F)c(NC(=O)/C=C/CNC5(C)CCOC5)c(F)c4)cc(c12)CCO3` (single isomer, unassigned) [Example 52], the 50% inhibitory concentration (IC50) in test [1] (setting [3]) was 4.55 nM; with MIA PaCa-2 cells, 1.44 nM.
On to `Cc1cc2c(nc(C)n2C)c2c1-c1cccc3c(C(=O)c4cc(F)c(NC(=O)/C=C/CN5[C@@H]6CC[C@H]5[C@@H](O)C6)c(F)c4)cn(c13)CCN2C` (racemic) [Example 142], for which the IC50 worked out at 28.1 nM in test [1] (setting [2]) and 85.5 nM in the test on MIA PaCa-2 cells.
In the case of `COCc1nc2c3c(c(OC)cc2n1C)-c1cccn2c(C(=O)c4cc(F)c(NC(=O)/C=C/CNC5(C)CC5)c(F)c4)nc(c12)CCN3C` (single isomer, unassigned) [Example 181, (E)-N-(2,6-difluoro-4-(6-methoxy-9-(methoxy-methyl)-8,11-dimethyl-8,11,12,13-tetrahydro-1,2a,8,10,11-pentaaza-cycloocta[1,2,3-cd:5,4-e′]-diindene-2-carbonyl)phen-yl)-4-((1-methylcyclo-propyl)amino)but-2-en-amide], the IC50 in test [1] (setting [3]) came out at 48.1 nM; in the test with MIA PaCa-2 cells it was 21 nM.
For `CN1CCc2cc(C(=O)c3cc(F)c(NC(=O)/C=C/CNCCO)c(F)c3)n3cccc(c23)-c2c(C(F)(F)F)cc3c(ncn3C)c21` [Example 96, (E)-N-(4-(9,12-dimethyl-7-(trifluoromethyl)-9,12,13,14-tetrahydro-imidazo[4″,5″:5′,6′]benzo-[1′,2′:2,3]azocino[4,5,6-hi]indolizine-2-carbonyl)-2,6-difluorophenyl)-4-((2-hydroxyethyl)amino)but-2-enamide] the same measures were 30.6 nM and 14.5 nM.
Consider `COc1cc2c(nc(C)n2C)c2c1-c1cccn3c(C(=O)c4cc(F)c(NC(=O)/C=C/CNC5CCCCC5)c(F)c4)cc(c13)CCN2C` [Example 104, (E)-4-(cyclohexylamino)-N-(2,6-difluoro-4-(7-methoxy-9,10,12-trimeth-yl-9,12,13,14-tetrahydro-imidazo[4″,5″:5′,6′]benzo-[1′,2′:2,3]azocino[4,5,6-hi]indolizine-2-carbon-yl)phenyl)but-2-enamide], for which the IC50 in test [1] (setting [3]) worked out at 41.2 nM; with MIA PaCa-2 cells, 15.5 nM.
In the case of `COCCn1cnc2c3c(c(C(F)(F)F)cc21)-c1cccn2c(C(=O)c4cc(F)c(NC(=O)/C=C/CN[C@H]5CCOC5)c(F)c4)cc(c12)CCN3C` (single isomer, unassigned) [Example 186], the concentration for half-maximal inhibition (IC50) in test [1] (setting [3]) turned out to be 16.7 nM; with MIA PaCa-2 cells, 10.3 nM.
Turning to `COCCn1c(C)nc2c3c(c(OC)cc21)-c1cccn2c(C(=O)c4cc(F)c(NC(=O)C=CCNC5(C)CC5)c(F)c4)cc(c12)CCS3` [Example 240, (E)-N-(2,6-difluoro-4-(7-methoxy-9-(2-methoxyethyl)-10-methyl-13,14-dihydro-9H-imidazo[4″,5″:5′,6′]benzo[1′,2′:2,3]thiocino[4,5,6-hi]indolizine-2-carbonyl)phenyl)-4-((1-methylcyclopropyl)amino)but-2-enamide], the figures for the IC50 (in test [1] (setting [3]); with MIA PaCa-2 cells) were 8.93 nM and 14.5 nM, respectively.
For `Cn1cnc2c3c(c(C(F)(F)F)cc21)-c1cccn2c(C(=O)c4cc(F)c(NC(=O)C=CCNC5CCOC5)c(F)c4)cc(c12)CCO3` [Example 120, (S,E)-N-(2,6-difluoro-4-(9-methyl-7-(trifluoromethyl)-13,14-dihydro-9H-imidazo[4″,5″:5′,6′]benzo[1′,2′:2,3]oxocino[4,5,6-bi]indolizine-2-carbonyl)phenyl)-4-((tetrahydrofuran-3-yl)amino)but-2-enamide] the same measures were 5.59 nM and 6.52 nM.
On to `COc1cc2c(nc(C)n2C)c2c1-c1cccn3c(C(=O)c4cc(F)c(NC(=O)/C=C/CN[C@H]5CCOC5)c(F)c4)cc(c13)CCN2C` (single isomer, unassigned) [Example 129], for which the half-maximal inhibitory concentration (IC50) in test [1] (setting [3]) turned out to be 8.8 nM; with MIA PaCa-2 cells it was 7.11 nM.
The corresponding values for `CO[C@H]1CC[C@H](NC/C=C/C(=O)Nc2c(F)cc(C(=O)c3c(C)c4c5c(cccn35)-c3c(C(F)(F)F)cc5c(nc(C)n5C)c3OCC4)cc2F)CC1` (single isomer, unassigned) [Example 64, (E)-N-(2,6-difluoro-4-(1,9,10-trimethyl-7-(tri-fluoromethyl)-13,14-dihydro-9H-imidazo-[4″,5″:5′,6′]benzo[1′,2′: 2,3]oxocino[4,5,6-hi]-indolizine-2-carbonyl)-phenyl)-4-(((1r,4r)-4-methoxycyclohexyl)-amino)but-2-enamide] are 14.2 nM and 11 nM.
The corresponding values for `COc1cc2c(nc(C)n2C)c2c1-c1cccn3c(C(=O)c4cc(F)c(NC(=O)/C=C/CNC5(C)CC5)c(F)c4)cc(c13)CCS2` [Example 225, (E)-N-(2,6-difluoro-4-(7-methoxy-9,10-dimethyl-13,14-dihydro-9H-imidazo[4″,5″:5′,6′]benzo-[1′,2′:2,3]thiocino[4,5,6-hi]indolizine-2-carbonyl)-phenyl)-4-((1-methyl-cyclopropyl)amino)but-2-enamide] are 10.1 nM and 7.18 nM.
Regarding `CC1(NC/C=C/C(=O)Nc2c(F)cc(C(=O)c3cc4c5c(cccn35)-c3c(cc(N5CCNC5=O)cc3C(F)(F)F)OCC4)cc2F)CC1` [Example 233, (E)-N-(2,6-difluoro-4-(7-(2-oxoimidazolidin-1-yl)-9-(trifluoromethyl)-3,4-dihydrobenzo[2,3]oxo-cino[4,5,6-hi]indolizine-1-carbonyl)phenyl)-4-((1-methylcyclopropyl)-amino)but-2-enamide], the 50% inhibitory concentration (IC50) is 52.6 nM in test [1] (setting [3]) and 14 nM in the test on MIA PaCa-2 cells.
In the case of `CN1CCn2cc(C(=O)c3cc(F)c(NC(=O)/C=C/CNC4(C)COC4)c(F)c3)c3cccc(c32)-c2c(C(F)(F)F)cc3c(ncn3C)c21` [Example 61, (E)-N-(4-(8,11-dimethyl-6-(trifluoromethyl)-8,11,12,13-tetrahydro-imidazo[4″,5″:5′,6′]benzo-[1′,2′:5,6][1,4]diazocino-[7,8,1-hi]indole-2-carbon-yl)-2,6-difluorophenyl)-4-((3-methyloxetan-3-yl)-amino)but-2-enamide], the IC50 amounted to 76.3 nM in test [1] (setting [2]) and 16.3 nM in the test with MIA PaCa-2 cells.
For `Cn1cnc2c3c(c(C(F)(F)F)cc21)-c1cccn2c(C(=O)c4cc(F)c(NC(=O)/C=C/CN5CCC[C@@](C)(O)C5)c(F)c4)cc(c12)CCO3` [Example 195, (R,E)-N-(2,6-difluoro-4-(9-methyl-7-(trifluoro-meth-yl)-13,14-dihydro-9H-imidazo[4″,5″:5′,6′]-benzo[1′,2′:2,3]oxocino-[4,5,6-hi]indolizine-2-carbonyl)phenyl)-4-(3-hydroxy-3-methylpiper-idin-1-yl)but-2-enamide], the figures for the IC50 (in test [1] (setting [3]); in the test with MIA PaCa-2 cells) were 39.4 nM and 19.3 nM, respectively.
For `COCCn1c(C)nc2c3c(c(OC)cc21)-c1cccn2c(C(=O)c4cc(F)c(NC(=O)/C=C/CNC5(C)CCCC5)c(F)c4)cc(c12)CCO3` [Example 246, (E)-N-(2,6-difluoro-4-(7-methoxy-9-(2-methoxyethyl)-10-methyl-13,14-dihydro-9H-imidazo[4″,5″:5′,6′]benzo[1′,2′:2,3]oxocino[4,5,6-hi]indolizine-2-carbonyl)phenyl)-4-((1-methylcyclopentyl)amino)but-2-enamide], the IC50 amounted to 13.6 nM in test [1] (setting [3]) and 17.2 nM with MIA PaCa-2 cells.
